Test results from ChEMBL document CHEMBL4765462, “Synthetic Lethality through the Lens of Medicinal Chemistry” (J Med Chem, 2020).

Columns and labels:
[1] = target: T1, DNA repair protein RAD52 homolog (Homo sapiens) (UniProt P43351); test: Inhibition of FAM-conjugated ssDNA binding to His-tagged wild type RAD52 (unknown origin) expressed in Rosetta2(DE3)/pLysS cells measured after 30 mins by high-throughput fluorescence polarization assay relative to control; set-up: concentration or dose not given beside the values
T1 sequence (whole entry): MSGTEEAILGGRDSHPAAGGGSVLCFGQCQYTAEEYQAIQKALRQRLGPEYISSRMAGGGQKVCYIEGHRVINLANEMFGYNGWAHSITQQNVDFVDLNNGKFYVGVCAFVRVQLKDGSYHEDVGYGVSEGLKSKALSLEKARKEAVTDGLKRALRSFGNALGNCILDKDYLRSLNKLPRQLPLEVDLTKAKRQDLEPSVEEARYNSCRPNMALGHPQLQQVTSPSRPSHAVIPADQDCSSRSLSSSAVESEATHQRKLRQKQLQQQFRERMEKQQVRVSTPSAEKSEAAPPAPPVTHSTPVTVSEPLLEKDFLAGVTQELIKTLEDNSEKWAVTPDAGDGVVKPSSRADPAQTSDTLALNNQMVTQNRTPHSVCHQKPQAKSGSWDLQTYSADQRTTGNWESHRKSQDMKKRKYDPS

[2] = target: T2, DNA repair protein RAD52 homolog (Homo sapiens, UniProt P43351); test: Inhibition of FAM-conjugated ssDNA binding to His-tagged wild type RAD52 (unknown origin) expressed in Rosetta2(DE3)/pLysS cells measured after 30 mins by fluorescence polarization assay
T2 sequence (P43351 whole entry): T1 sequence (whole entry)

[3] = test system: U-87 MG; test: Antimigratory activity against human U87 cells up to 10 microM incubated for 6 hrs by CellTiter-Glo luminescent cell viability assay relative to control; assay type: functional, U-87MG ATCC; conditions: dose microM <=10
[4] = Antimigratory activity against human U-1242 cells at 3 uM incubated for 1 hr by scratch assay; assay type: functional, U-1242MG
[5] = Inhibition of human placental DNA-PK/Ku using EPPLSQEAFADLWKK as substrate in presence of [32P]ATP incubated for 12 mins by scintillation counting method
[6] = target: Cyclin-dependent kinase 12 (Homo sapiens, UniProt Q9NYV4); test: Inhibition of CDK12 (unknown origin)
[7] = target: Cyclin-dependent kinase 13 (Homo sapiens, UniProt Q14004); test: Inhibition of CDK13 (unknown origin)
[8] = target: Wee1-like protein kinase (Homo sapiens, UniProt P30291); test: Displacement of kinase tracer178 from recombinant WEE1 (unknown origin) incubated for 1 hr by lanthascreen TR-FRET assay
[9] = target: Serine-protein kinase ATM (Homo sapiens, UniProt Q13315); test: Inhibition of human HeLa nuclear extract derived ATM using glutathioneS-transferase-p53N66 as substrate preincubated for 10 mins followed by ATP addition and measured after 1 hr by ELISA
[10] = test system: BXPC-3; test: Growth inhibition of BRCA2-proficient human BxPC3 cells at 10 uM assessed as cell survival incubated for 6 days with replacement of medium for every 3 days by CCK8 assay relative to control; assay type: functional; conditions: BXPC-3, 144 h, time 6 day, read-out: Survival
[11] = test system: CAPAN-1; test: Growth inhibition of BRCA2-deficient human Capan-1 cells at 10 uM incubated for 6 days with replacement of medium for every 3 days by CCK8 assay relative to control; assay type: functional; conditions: CAPAN-1, 144 h, time 6 day, read-out: GI
[12] = target: Serine/threonine-protein kinase ATR (Homo sapiens, UniProt Q13535); test: Inhibition of ATR (unknown origin)
[13] = target: Serine/threonine-protein kinase mTOR (Homo sapiens, UniProt P42345); test: Inhibition of mTOR (unknown origin)
[14] = Inhibition of DNA-PK (unknown origin); set-up: species or system Homo sapiens
[15] = target: Macrophage colony-stimulating factor 1 receptor (Homo sapiens) (UniProt P07333); test: Inhibition of human CSF1R expressed in baculovirus expression system at 1 uM relative to control
[16] = target: NUAK family SNF1-like kinase 1 (Homo sapiens) (UniProt O60285); test: Inhibition of human NUAK1 expressed in baculovirus expression system at 1 uM relative to control
[17] = target: Serine/threonine-protein kinase Sgk1 (Homo sapiens) (UniProt O00141); test: Inhibition of human SGK expressed in baculovirus expression system at 1 uM relative to control
[18] = target: Voltage-gated inwardly rectifying potassium channel KCNH2 (Homo sapiens, UniProt Q12809); test: Inhibition of human ERG
[19] = test system: MDA-MB-468; test: Potentiation of veliparib-induced cytotoxicity against human MDA-MB-468 cells incubated for 7 days by celltiter-Glo assay relative to control; assay type: functional; conditions: time 7 day
[20] = test system: Hs-578T; test: Potentiation of veliparib-induced cytotoxicity against human Hs578T cells incubated for 7 days by celltiter-Glo assay relative to control; assay type: functional; conditions: time 7 day
[21] = test system: HCC38; test: Potentiation of veliparib-induced cytotoxicity against human HCC38 cells incubated for 7 days by celltiter-Glo assay relative to control; assay type: functional; conditions: time 7 day
[22] = test system: BT-549; test: Potentiation of veliparib-induced cytotoxicity against human BT549 cells incubated for 7 days by celltiter-Glo assay relative to control; assay type: functional; conditions: time 7 day
[23] = test system: BT-20; test: Potentiation of veliparib-induced cytotoxicity against human BT20 cells incubated for 7 days by celltiter-Glo assay relative to control; assay type: functional; conditions: time 7 day
[24] = test system: MDA-MB-231; test: Potentiation of veliparib-induced cytotoxicity against human MDA-MB-231 cells incubated for 7 days by celltiter-Glo assay relative to control; assay type: functional; conditions: time 7 day
[25] = test system: MDA-MB-436; test: Potentiation of veliparib-induced cytotoxicity against human MDA-MB-436 cells incubated for 7 days by celltiter-Glo assay relative to control; assay type: functional; conditions: time 7 day
[26] = test system: SUM149PT; test: Potentiation of veliparib-induced cytotoxicity against human SUM149PT cells incubated for 7 days by celltiter-Glo assay relative to control; assay type: functional; conditions: time 7 day
[27] = test system: HCC1937; test: Potentiation of veliparib-induced cytotoxicity against human HCC1937 cells incubated for 7 days by celltiter-Glo assay relative to control; assay type: functional; conditions: time 7 day
[28] = target: Cyclin-dependent kinase 1 (Homo sapiens, UniProt P06493); test: Inhibition of CDK1 (unknown origin)
[29] = target: T2, DNA repair protein RAD52 homolog; test: Inhibition of 6His-tagged human RD52 assessed as reduction in RD52 binding to Cy3-dT30-Cy5 ssDNA incubated for 30 mins by FRET assay

Sequence of Serine/threonine-protein kinase ATR (Q13535 whole entry): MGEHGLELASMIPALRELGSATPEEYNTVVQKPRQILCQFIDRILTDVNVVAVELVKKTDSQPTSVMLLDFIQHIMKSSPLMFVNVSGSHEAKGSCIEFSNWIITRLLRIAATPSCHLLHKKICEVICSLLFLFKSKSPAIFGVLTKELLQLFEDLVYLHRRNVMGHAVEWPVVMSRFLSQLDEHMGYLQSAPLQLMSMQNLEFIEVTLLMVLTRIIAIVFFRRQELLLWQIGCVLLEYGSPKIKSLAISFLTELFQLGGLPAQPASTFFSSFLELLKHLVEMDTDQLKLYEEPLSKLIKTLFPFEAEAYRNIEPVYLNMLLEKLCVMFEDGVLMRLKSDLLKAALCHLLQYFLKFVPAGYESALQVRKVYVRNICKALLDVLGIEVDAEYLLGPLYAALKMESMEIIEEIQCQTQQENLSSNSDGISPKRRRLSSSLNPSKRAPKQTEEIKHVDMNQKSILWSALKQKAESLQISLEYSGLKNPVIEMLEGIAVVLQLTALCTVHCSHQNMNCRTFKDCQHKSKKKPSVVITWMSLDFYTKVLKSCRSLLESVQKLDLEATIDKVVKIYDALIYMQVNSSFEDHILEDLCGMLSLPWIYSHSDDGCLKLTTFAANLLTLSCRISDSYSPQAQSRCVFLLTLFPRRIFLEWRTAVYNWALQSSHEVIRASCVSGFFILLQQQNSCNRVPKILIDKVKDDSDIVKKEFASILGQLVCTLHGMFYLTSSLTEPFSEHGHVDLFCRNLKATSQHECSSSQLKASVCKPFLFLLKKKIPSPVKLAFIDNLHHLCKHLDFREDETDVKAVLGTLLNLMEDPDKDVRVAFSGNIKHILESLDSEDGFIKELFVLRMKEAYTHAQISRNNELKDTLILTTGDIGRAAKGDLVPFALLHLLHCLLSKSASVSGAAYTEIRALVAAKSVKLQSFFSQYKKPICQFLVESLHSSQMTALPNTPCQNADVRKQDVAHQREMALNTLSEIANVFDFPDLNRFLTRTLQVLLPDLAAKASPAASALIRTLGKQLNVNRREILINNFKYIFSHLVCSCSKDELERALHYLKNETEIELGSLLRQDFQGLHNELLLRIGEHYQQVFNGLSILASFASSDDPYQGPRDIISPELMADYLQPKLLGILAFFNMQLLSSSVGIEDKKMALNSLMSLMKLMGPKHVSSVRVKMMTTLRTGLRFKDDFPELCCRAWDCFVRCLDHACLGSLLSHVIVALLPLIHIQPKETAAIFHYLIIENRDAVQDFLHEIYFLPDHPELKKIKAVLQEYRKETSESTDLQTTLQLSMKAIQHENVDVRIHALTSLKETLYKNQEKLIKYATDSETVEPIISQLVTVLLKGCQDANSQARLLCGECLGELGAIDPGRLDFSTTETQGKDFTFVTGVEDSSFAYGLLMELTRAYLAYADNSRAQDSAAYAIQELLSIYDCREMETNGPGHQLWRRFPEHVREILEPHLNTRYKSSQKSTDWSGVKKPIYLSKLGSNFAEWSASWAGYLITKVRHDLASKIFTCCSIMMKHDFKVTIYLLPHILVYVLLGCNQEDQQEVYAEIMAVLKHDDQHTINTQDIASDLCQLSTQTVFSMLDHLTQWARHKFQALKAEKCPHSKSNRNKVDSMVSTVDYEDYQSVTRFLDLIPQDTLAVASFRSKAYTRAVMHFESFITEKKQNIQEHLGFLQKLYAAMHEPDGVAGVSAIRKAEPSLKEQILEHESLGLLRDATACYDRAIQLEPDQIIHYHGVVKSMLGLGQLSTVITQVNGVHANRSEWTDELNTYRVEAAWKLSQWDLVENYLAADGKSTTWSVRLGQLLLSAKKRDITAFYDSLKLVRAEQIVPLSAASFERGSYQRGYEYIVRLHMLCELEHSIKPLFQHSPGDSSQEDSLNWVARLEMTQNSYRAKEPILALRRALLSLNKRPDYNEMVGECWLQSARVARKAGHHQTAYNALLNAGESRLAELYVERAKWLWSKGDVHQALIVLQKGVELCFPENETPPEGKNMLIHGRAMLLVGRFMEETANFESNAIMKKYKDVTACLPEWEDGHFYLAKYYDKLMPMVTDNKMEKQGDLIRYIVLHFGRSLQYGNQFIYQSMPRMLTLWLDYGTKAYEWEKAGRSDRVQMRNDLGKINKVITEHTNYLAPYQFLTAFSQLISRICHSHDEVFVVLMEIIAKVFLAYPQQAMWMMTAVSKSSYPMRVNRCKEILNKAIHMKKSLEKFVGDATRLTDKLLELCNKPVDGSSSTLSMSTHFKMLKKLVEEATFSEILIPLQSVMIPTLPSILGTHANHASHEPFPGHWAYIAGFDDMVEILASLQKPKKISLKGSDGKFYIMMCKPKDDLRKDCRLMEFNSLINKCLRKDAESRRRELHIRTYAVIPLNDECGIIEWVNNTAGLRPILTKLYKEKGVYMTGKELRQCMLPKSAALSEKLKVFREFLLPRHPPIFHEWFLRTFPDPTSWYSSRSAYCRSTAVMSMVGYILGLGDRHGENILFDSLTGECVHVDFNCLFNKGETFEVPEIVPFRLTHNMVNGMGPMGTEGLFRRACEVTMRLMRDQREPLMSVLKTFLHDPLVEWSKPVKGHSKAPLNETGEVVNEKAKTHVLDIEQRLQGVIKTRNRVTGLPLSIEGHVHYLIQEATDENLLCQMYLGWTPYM
Sequence of NUAK family SNF1-like kinase 1 (Homo sapiens) (O60285 whole entry): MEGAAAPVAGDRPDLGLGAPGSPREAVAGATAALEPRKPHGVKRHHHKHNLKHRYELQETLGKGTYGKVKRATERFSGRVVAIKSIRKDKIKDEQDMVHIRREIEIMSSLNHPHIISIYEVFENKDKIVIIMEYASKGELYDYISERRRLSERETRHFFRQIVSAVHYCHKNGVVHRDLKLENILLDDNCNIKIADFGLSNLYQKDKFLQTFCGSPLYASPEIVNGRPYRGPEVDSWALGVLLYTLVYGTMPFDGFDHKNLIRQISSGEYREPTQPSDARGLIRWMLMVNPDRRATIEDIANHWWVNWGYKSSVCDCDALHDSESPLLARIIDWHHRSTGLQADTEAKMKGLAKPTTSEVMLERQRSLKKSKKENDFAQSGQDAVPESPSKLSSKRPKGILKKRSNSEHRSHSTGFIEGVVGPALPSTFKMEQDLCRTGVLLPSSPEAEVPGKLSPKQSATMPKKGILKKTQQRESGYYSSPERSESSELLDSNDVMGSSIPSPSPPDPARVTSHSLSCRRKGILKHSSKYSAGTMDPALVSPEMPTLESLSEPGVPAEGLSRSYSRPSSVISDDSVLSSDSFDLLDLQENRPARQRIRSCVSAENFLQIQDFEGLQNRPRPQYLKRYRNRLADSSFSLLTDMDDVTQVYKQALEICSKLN
Sequence of Cyclin-dependent kinase 1 (P06493 whole entry): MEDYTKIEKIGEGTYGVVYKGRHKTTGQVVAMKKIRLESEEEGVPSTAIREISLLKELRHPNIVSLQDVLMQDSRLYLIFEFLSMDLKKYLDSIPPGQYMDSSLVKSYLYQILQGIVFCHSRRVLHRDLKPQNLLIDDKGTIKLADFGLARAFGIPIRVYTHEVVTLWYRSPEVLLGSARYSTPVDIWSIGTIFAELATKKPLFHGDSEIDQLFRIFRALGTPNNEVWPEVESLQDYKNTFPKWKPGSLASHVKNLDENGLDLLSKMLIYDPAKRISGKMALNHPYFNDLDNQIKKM
Sequence of Voltage-gated inwardly rectifying potassium channel KCNH2 (Q12809 whole entry): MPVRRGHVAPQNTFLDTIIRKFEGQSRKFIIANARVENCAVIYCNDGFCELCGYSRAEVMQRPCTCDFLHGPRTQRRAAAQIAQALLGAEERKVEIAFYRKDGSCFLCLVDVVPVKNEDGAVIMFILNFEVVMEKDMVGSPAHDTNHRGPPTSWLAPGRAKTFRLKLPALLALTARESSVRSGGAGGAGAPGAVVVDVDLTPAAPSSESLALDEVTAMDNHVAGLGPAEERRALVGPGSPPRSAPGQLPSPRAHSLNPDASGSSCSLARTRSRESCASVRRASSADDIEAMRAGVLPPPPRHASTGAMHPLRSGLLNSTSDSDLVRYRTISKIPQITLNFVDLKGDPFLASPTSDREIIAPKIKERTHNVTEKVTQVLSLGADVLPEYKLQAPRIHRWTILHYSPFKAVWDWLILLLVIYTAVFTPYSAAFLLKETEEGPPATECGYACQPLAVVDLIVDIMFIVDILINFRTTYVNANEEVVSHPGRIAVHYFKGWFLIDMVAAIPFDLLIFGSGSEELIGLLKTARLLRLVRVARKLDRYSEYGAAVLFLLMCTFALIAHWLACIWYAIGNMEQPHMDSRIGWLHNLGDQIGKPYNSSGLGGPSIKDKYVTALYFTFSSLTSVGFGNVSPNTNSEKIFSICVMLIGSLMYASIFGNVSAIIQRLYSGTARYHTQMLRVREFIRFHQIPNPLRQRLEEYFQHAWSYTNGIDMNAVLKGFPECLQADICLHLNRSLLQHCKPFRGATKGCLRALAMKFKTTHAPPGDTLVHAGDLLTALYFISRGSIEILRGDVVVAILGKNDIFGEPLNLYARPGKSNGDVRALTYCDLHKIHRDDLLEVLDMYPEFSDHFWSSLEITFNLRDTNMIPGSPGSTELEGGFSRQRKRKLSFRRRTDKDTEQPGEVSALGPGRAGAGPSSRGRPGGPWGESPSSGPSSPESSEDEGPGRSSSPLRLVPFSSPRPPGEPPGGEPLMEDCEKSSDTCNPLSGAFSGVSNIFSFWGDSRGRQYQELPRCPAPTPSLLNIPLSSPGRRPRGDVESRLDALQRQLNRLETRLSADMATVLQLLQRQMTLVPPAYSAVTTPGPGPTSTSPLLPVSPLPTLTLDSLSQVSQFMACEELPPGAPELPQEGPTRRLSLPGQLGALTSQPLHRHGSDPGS

SMILES: NC(Cc1cc(O)c(O)cc1O)C(=O)O (stereo not given)
- inhibition [1]: > 60%
- IC50 [2]: 1100 nM

SMILES: C[C@@H]1CN(CC(=O)Nc2ccc3c(c2)Cc2cccc(-c4cc(=O)cc(N5CCOCC5)o4)c2S3)C[C@H](C)O1
- Activity [3]: >70%
- Activity [4]: >50%

SMILES: CCc1[nH]c(/C=C2\C(=O)Nc3ccc(S(=O)(=O)Nc4ccccc4)cc32)c(CC)c1CCC(=O)O
- IC50 [5]: 130 nM

SMILES: CN(C)C/C=C/C(=O)Nc1ccc(C(=O)Nc2cccc(Nc3ncc(Cl)c(-c4c[nH]c5ccccc45)n3)c2)cc1
- IC50 [6]: 864 nM
- IC50 [7]: 225 nM

SMILES: O=C1NC(=S)NC(=O)C1=C/C=C/c1ccco1
- inhibition [1]: > 60%
- IC50 [2]: < 5000 nM

SMILES: Cn1cccc1C=CC(=O)O
- inhibition [1]: > 60%
- IC50 [2]: < 5000 nM

SMILES: C=CCn1c(=O)c2cnc(Nc3ccc(N4CCN(C(=O)OC)CC4)cc3)nc2n1-c1cccc(C(C)(C)O)n1
- IC50 [8]: 2.8 nM

SMILES: CC(C)Oc1c(-c2ccco2)c(=O)c1=O
- inhibition [1]: > 60%
- IC50 [2]: < 5000 nM

SMILES: Oc1ccc(N=Cc2ccc[nH]2)cc1N=Cc1ccc[nH]1
- inhibition [1]: > 60%
- IC50 [2]: < 5000 nM

SMILES: O=C(O)c1ccc(/C=N/c2nc[nH]n2)cc1
- inhibition [1]: > 60%
- IC50 [2]: < 5000 nM

SMILES: O=c1cc(-c2cccc3c2Sc2ccccc2S3)oc(N2CCCCC2)c1
- IC50 [9]: 2960 nM

SMILES: O=C1C=CC(=NOS(=O)(=O)c2cc(Cl)ccc2Cl)C=C1
- inhibition [1]: > 60%
- IC50 [2]: < 5000 nM

SMILES: Cn1cccc1C=C1C(=O)NC(=S)NC1=O
- inhibition [1]: > 60%
- IC50 [2]: < 5000 nM

SMILES: Cc1ccc2[nH]c(CCc3cccc(NC(=O)C4CCCN(S(=O)(=O)N5CCCC5)C4)c3)nc2c1 (stereo not given)
- viability at 10 µM [10]: > 90%
- inhibition of growth at 10 µM [11]: 50%

SMILES: O=C(O)C1=CC(=C(c2ccc(O)c(C(=O)O)c2)c2ccc(O)c(C(=O)O)c2)C=CC1=O [AURINTRICARBOXYLIC ACID]
- inhibition [1]: > 60%
- IC50 [2]: < 5000 nM

SMILES: CC(C)n1c(=O)n(C)c2cnc3cc(F)c(-c4ccc(OCCCN5CCCCC5)nc4)cc3c21 [AZD-1390]
- IC50 [12]: ≥ 1000 nM
- IC50 [13]: ≥ 1000 nM
- IC50 [14]: ≥ 1000 nM
- inhibition [15]: > 50%
- inhibition [16]: > 50%
- inhibition [17]: > 50%
- IC50 [18]: 6550 nM

SMILES: Cc1cc2ncnn2cc1Nc1ncc2c(n1)n(C1CCOCC1)c(=O)n2C [AZD-7648]
- IC50 [14]: 0.6 nM

SMILES: CCc1cnn2c(NCc3ccc[n+]([O-])c3)cc(N3CCCC[C@H]3CCO)nc12 [DINACICLIB]
- fold change (FC) [19]: 2.5
- fold change (FC) [20]: 2.5
- fold change (FC) [21]: 2.5
- fold change (FC) [22]: 2.5
- fold change (FC) [23]: 2.5
- fold change (FC) [24]: 2.5
- fold change (FC) [25]: 2.5
- fold change (FC) [26]: 2.5
- fold change (FC) [27]: 2.5

SMILES: Cc1cc2c(C(C)C)c(O)c(O)c(C=O)c2c(O)c1-c1c(C)cc2c(C(C)C)c(O)c(O)c(C=O)c2c1O [GOSSYPOL]
- inhibition [1]: > 60%
- IC50 [2]: < 5000 nM

SMILES: Nc1nn2cc(F)cnc2c1C(=O)Nc1cncc(F)c1N1CCC(C(=O)N2CCN(C3COC3)CC2)CC1 [M4344]
- Ki [12]: ≤ 0.15 nM

SMILES: COc1ccc([C@@H](O)c2cc(-c3ncnc4cc(N5CCOCC5)ccc34)c(F)cc2Cl)nn1 [NEDISERTIB]
- IC50 [14]: ≤ 3 nM

SMILES: CCN(CC)CCOc1ccc(Nc2ncc3cc(-c4c(Cl)cccc4Cl)c(=O)n(C)c3n2)cc1 [PD-0166285]
- IC50 [28]: < 100 nM

SMILES: O=C(O[C@@H]1O[C@@H]2COC(=O)c3cc(O)c(O)c(O)c3-c3c(cc(O)c(O)c3O)C(=O)O[C@H]2[C@H](O)[C@H]1O)c1cc(O)c(O)c(O)c1 [STRICTININ]
- IC50 [29]: 1500 nM
